Data: patent EP0799188B1, “AMIDES OF MONO AND DICARBOXYLIC ACIDS WITH GLYCOSAMINES, SELECTIVELY ACTIVE ON THE CANNABINOID PERIPHERAL RECEPTOR” (LIFEGROUP S.p.A., priority 1994, dated 1996)
Where two headings read alike, the source gives them in different places.

How the values were obtained:
[1] = biological target: T1, CB2 receptor (Rattus norvegicus, UniProt Q9QZN9); assay: 3H-WIN 55,212-2 binding displacement on RBL-2H3 cell membranes; settings: competitor 10 µM; amides in 0.1% DMSO, Anandamide and Nabilone in 0.1% ethanol
T1 construct: 30 µg membrane proteins prepared in item a); endogenous in cells; host or cells: RBL-2H3 cells (plasma membrane preparation)
T1 sequence (Q9QZN9 1-360): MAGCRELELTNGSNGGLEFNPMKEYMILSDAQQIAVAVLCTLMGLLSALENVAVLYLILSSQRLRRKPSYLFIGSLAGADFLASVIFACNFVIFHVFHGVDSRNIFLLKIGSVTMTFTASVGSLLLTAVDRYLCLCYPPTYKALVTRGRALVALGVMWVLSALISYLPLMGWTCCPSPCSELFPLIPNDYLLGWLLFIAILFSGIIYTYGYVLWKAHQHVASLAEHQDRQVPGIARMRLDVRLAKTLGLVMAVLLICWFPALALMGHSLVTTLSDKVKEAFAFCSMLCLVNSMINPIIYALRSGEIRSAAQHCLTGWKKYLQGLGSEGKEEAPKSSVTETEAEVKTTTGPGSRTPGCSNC

[2] = tested on: cerebellar granule cell culture; assay: neuroprotective effect against glutamate-induced cell death (MTT); type: cell-based, mouse
[3] = biological target: CB2 receptor (Homo sapiens, UniProt P34972); settings: CB2 versus CB1 central receptor; cited from earlier work
Chain of CB2 receptor (Homo sapiens, UniProt P34972) (P34972 whole entry): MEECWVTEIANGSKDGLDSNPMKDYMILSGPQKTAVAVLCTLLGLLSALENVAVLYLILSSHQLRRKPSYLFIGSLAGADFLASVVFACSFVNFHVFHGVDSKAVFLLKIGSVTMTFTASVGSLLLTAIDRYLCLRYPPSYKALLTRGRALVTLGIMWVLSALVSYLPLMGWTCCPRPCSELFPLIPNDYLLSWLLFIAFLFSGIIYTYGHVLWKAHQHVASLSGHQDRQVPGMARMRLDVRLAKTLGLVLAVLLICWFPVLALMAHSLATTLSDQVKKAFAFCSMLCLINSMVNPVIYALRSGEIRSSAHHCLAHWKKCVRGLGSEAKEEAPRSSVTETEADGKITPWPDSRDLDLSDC

[4] = tested on: RBL-2H3 cells; assay: 3H-serotonin release induced by ADNP/DNP.HSA immunogenic stimulation; type: cell-based, rat; settings: for effect on serotonin release (RBL cells immunogenic activation): statement in words on Table 3
[5] = biological target: T1, CB2 receptor; assay: saturation curve of 3H-WIN 55,212-2 binding to RBL-2H3 cell membranes; settings: 3H-WIN 55,212-2 0.5 to 20 nM, 30 µg membrane proteins, 30°C 60 min

SMILES | Displacement (%) [1] | Specific binding [1] | EC50 ([2]; glutamate 500 µM for 5 minutes, compound added for 10 minutes, 15 minutes after removing glutamate, MTT after 24 hours, means ± SEM) | protective effect against cell death induced by glutamate ([2]; glutamate 500 µM, anandamide up to 100 µM) | affinity to the CB2 receptor, folds inferior to that of the central receptor [3] | inhibition at 12.5 µM ([4]; Rattus norvegicus, RBL-2H3, read-out: 3H-serotonin net release inhibition (%), 12.5µM, -WIN) | 3H-serotonin net release (%) ([4]; concentration not given, 0.1% DMSO and 0.1% ethanol) | effect on serotonin release (RBL cells immunogenic activation) [4] | 3H-serotonin net release inhibition (%) ([4]; 30µM, + anandamide (12.5 µM)) | 3H-serotonin net release inhibition (%) ([4]; 30µM, -anandamide) | 3H-serotonin net release (%) ([4]; 50µM, 0.1% DMSO and 0.1% ethanol) | 3H-serotonin net release inhibition (%) ([4]; WIN 55,212-2 30 µm, + 12.5µM anandamide) | 3H-serotonin net release inhibition (%) ([4]; WIN 55,212-2 30 µm, + 12.5µM arachidonic acid) | 3H-serotonin net release inhibition (%) ([4]; WIN 55,212-2 30 µm, + 12.5µM ethanolamide + 12.5µM arachidonic acid) | 3H-serotonin net release inhibition (%) ([4]; WIN 55,212-2 30 µm, + 12.5µM ethanolamine) | 3H-serotonin net release inhibition (%) ([4]; WIN 55,212-2 30 µm, DNP.HSA alone) | EC50 ([4]; inhibition of 3H-serotonin release, +anandamide (12.5 µM), read-out: ED50 (the source's name)) | EC50 ([4]; inhibition of 3H-serotonin release, -anandamide, read-out: ED50 (the source's name)) | EC50 ([4]; inhibition of serotonin release, 0.1% DMSO and 0.1% ethanol, read-out: ED50 (µm)) | Bmax [5]
CCCCC/C=C\C/C=C\C/C=C\C/C=C\CCCC(=O)NCCO [Anandamide, arachidonylethanolamide, reference compound] | 95% | 99 | no effect (3) | not effective | 30 folds | 7% | 100% | unable to affect serotonin release | – | – | – | – | – | – | – | – | – | – | – | –
Cc1c(C(=O)c2cccc3ccccc23)c2cccc3c2n1[C@H](CN1CCOCC1)CO3 [WIN 55,212-2, reference compound] | – | – | – | – | – | – | – | able to inhibit, in a concentration-dependent way | 36% | 100% | 0% | 15% | 59% | 61% | 72% | 69% | 40 µM | 6.4 µM | 6.4 µM | 100 to 250 pM
